Literature values, collected in US11925657B2, “Formulations and methods for treating conditions of the eye” (Sight Sciences, Inc., priority 2020, dated 2024).

Experiments:
[1] = antibiotic levels of azithromycin (1%)
[2] = lower concentrations, e.g. 0.1% and 0.35%

Compound	phase transition temperature of meibum lipids and lipid ordering [1]	efficacy toward intended rosacea treatment [2]
CC[C@H]1OC(=O)[C@H](C)[C@@H](O[C@H]2C[C@@](C)(OC)[C@@H](O)[C@H](C)O2)[C@H](C)[C@@H](O[C@@H]2O[C@H](C)C[C@H](N(C)C)[C@H]2O)[C@](C)(O)C[C@@H](C)CN(C)[C@H](C)[C@@H](O)[C@]1(C)O [azithromycin]	can improve	–
ivermectin	–	lose efficacy
